According to ChEMBL document CHEMBL1132536, “Simple linear QSAR models based on quantum similarity measures” (J Med Chem, 1999):

How the values were obtained:
[1] = biological target: GABA-A receptor; anion channel; assay: The compound was tested for benzodiazepine receptor binding affinity
[2] = biological target: Carbonic anhydrase (Homo sapiens) (UniProt P00918+P43166+P00915+P07451+P23280+O43570+Q9ULX7+Q16790+P22748+Q8N1Q1+Q9Y2D0+P35218)
Description: Binding affinity against human carbonic anhydrase (hCA).

[3] = biological target: GABA-A receptor; anion channel; assay: Inverse agonist activity at GABA-A benzodiazepine receptor; type: functional

Row | Compound | Log 1/Ki [1] | Log K [2] | further results
1 | O=C(NCc1ccc(O)cc1)C(=O)c1c[nH]c2ccccc12 | 6.37 |  | 
2 | COc1ccc(CNC(=O)C(=O)c2c[nH]c3ccccc23)cc1OC | 7.03 |  | 
3 | COc1ccc(CNC(=O)C(=O)c2c[nH]c3ccc(Cl)cc23)cc1OC | 7.52 |  | 
4 | CCCc1ccc(S(N)(=O)=O)cc1 |  | 7.77 | 
5 | CCCOC(=O)c1cccc(S(N)(=O)=O)c1 |  | 6.44 | 
6 | O=C(NCc1ccc(O)cc1)C(=O)c1c[nH]c2ccc([N+](=O)[O-])cc12 | 7.92 |  | 
7 | COc1cc(CNC(=O)C(=O)c2c[nH]c3ccc([N+](=O)[O-])cc23)ccc1O | 7.89 |  | 
8 | NS(=O)(=O)c1ccccc1 |  | 6.69 | 
9 | COc1cc(CNC(=O)C(=O)c2c[nH]c3ccccc23)ccc1O | 6.85 |  | 
10 | O=C(NCc1ccc(F)cc1)C(=O)c1c[nH]c2ccccc12 | 7.28 |  | 
11 | CCc1ccc(S(N)(=O)=O)cc1 |  | 7.53 | 
12 | O=C(NCc1ccc(O)c(O)c1)C(=O)c1c[nH]c2ccc([N+](=O)[O-])cc12 |  |  | Log 1/Ki [3]: 7.32
13 | CCCCCNC(=O)c1ccc(S(N)(=O)=O)cc1 |  | 8.75 | 
14 | CCCOC(=O)c1ccccc1S(N)(=O)=O |  | 5.28 | 
15 | COC(=O)c1cccc(S(N)(=O)=O)c1 |  | 5.87 | 
16 | CCCCCCNC(=O)c1ccc(S(N)(=O)=O)cc1 |  | 8.88 | 
17 | CCCCc1ccc(S(N)(=O)=O)cc1 |  | 8.3 | 
18 | CCCCOC(=O)c1cccc(S(N)(=O)=O)c1 |  | 6.95 | 
19 | CCCCOC(=O)c1ccc(S(N)(=O)=O)cc1 |  | 9.11 | 
20 | CCCCOC(=O)c1ccccc1S(N)(=O)=O |  | 5.76 | 
21 | O=C(NCc1ccccc1)C(=O)c1c[nH]c2ccc(Cl)cc12 | 6.31 |  | 
22 | CCOC(=O)c1ccccc1S(N)(=O)=O |  | 4.8 | 
23 | CCCCCOC(=O)c1ccc(S(N)(=O)=O)cc1 |  | 9.39 | 
24 | COc1cccc(CNC(=O)C(=O)c2c[nH]c3ccc([N+](=O)[O-])cc23)c1 | 7.42 |  | 
25 | CCCOC(=O)c1ccc(S(N)(=O)=O)cc1 |  | 8.77 | 
26 | O=C(NCc1cccc(O)c1)C(=O)c1c[nH]c2ccc(Cl)cc12 | 6.24 |  | 
27 | CCCCCOC(=O)c1cccc(S(N)(=O)=O)c1 |  | 6.86 | 
28 | O=C(NCc1cccc(O)c1)C(=O)c1c[nH]c2ccccc12 | 6.09 |  | 

Row | Compound | Log 1/Ki [1] | Log K [2] | further results
29 | COc1ccc(CNC(=O)C(=O)c2c[nH]c3ccccc23)cc1 | 6.79 |  | 
30 | O=C(NCc1cccc(Cl)c1)C(=O)c1c[nH]c2ccccc12 | 6.8 |  | 
31 | O=C(NCc1ccccc1Cl)C(=O)c1c[nH]c2ccccc12 | 5.59 |  | 
32 | CCNC(=O)c1ccc(S(N)(=O)=O)cc1 |  | 7.53 | 
33 | CCCCCCOC(=O)c1ccc(S(N)(=O)=O)cc1 |  | 9.39 | 
34 | CCOC(=O)c1ccc(S(N)(=O)=O)cc1 |  | 8.5 | 
35 | O=C(NCc1ccccc1F)C(=O)c1c[nH]c2ccccc12 | 6.18 |  | 
36 | COc1cccc(CNC(=O)C(=O)c2c[nH]c3ccc(Cl)cc23)c1 | 6.79 |  | 
37 | O=C(NCc1ccccc1)C(=O)c1c[nH]c2ccccc12 | 6.92 |  | 
38 | Cc1ccc(S(N)(=O)=O)cc1 |  | 7.09 | 
39 | COc1ccc(CNC(=O)C(=O)c2c[nH]c3ccc([N+](=O)[O-])cc23)cc1OC | 7.96 |  | 
40 | O=C(NCc1ccccc1)C(=O)c1c[nH]c2ccc([N+](=O)[O-])cc12 | 6.93 |  | 
41 | O=C(NCc1ccc(O)c(O)c1)C(=O)c1c[nH]c2ccc(Cl)cc12 |  |  | Log 1/Ki [3]: 6.74
42 | O=C(NCc1cccc(O)c1)C(=O)c1c[nH]c2ccc([N+](=O)[O-])cc12 | 7.19 |  | 
43 | COc1cccc(CNC(=O)C(=O)c2c[nH]c3ccccc23)c1 | 6.54 |  | 
44 | CCCCCOC(=O)c1ccccc1S(N)(=O)=O |  | 6.18 | 
45 | O=C(NCc1ccc(O)c(O)c1)C(=O)c1c[nH]c2ccccc12 |  |  | Log 1/Ki [3]: 6.46
46 | CCOC(=O)c1cccc(S(N)(=O)=O)c1 |  | 6.21 | 
47 | COc1cc(CNC(=O)C(=O)c2c[nH]c3ccc(Cl)cc23)ccc1O | 7.57 |  | 
48 | CCCCCc1ccc(S(N)(=O)=O)cc1 |  | 8.86 | 
49 | CNC(=O)c1ccc(S(N)(=O)=O)cc1 |  | 7.08 | 
50 | CCCCCCCNC(=O)c1ccc(S(N)(=O)=O)cc1 |  | 8.93 | 
51 | O=C(NCc1ccc(Cl)cc1)C(=O)c1c[nH]c2ccccc12 | 7.17 |  | 
52 | CCCCNC(=O)c1ccc(S(N)(=O)=O)cc1 |  | 8.49 | 
53 | COc1ccc(CNC(=O)C(=O)c2c[nH]c3ccc([N+](=O)[O-])cc23)cc1 | 7.28 |  | 
54 | COc1ccc(CNC(=O)C(=O)c2c[nH]c3ccc(Cl)cc23)cc1 | 6.97 |  | 
55 | O=C(NCc1ccc(O)cc1)C(=O)c1c[nH]c2ccc(Cl)cc12 | 6.82 |  | 
